Measurements taken from ChEMBL document CHEMBL5360622, “Leucettinibs, a Class of DYRK/CLK Kinase Inhibitors Inspired by the Marine Sponge Natural Product Leucettamine B” (J Med Chem, 2023).

Columns and labels:
[1] = target: Glycogen synthase kinase-3 beta (Homo sapiens, UniProt P49841); format: cell-based, Sf9
[2] = target: Dual specificity protein kinase CLK3 (Homo sapiens, UniProt P49761); format: cell-based, Sf9
[3] = target: T1, Dual specificity tyrosine-phosphorylation-regulated kinase 3 (Homo sapiens, UniProt O43781)
T1 sequence (O43781 whole entry): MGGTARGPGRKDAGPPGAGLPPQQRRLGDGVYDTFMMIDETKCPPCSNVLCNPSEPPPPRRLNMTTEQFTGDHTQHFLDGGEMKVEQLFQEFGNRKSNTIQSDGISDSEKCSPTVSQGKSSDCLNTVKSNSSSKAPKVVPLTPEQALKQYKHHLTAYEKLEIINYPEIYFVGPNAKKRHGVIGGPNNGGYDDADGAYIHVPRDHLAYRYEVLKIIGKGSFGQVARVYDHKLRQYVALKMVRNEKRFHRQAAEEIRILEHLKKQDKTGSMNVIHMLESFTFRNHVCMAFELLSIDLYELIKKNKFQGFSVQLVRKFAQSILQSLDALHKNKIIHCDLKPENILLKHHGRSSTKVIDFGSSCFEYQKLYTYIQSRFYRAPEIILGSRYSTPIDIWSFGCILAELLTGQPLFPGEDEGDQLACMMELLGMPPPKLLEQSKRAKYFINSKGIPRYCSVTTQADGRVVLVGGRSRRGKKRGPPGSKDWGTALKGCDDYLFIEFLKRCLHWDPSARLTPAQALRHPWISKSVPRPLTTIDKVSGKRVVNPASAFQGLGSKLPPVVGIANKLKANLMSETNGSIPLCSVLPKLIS

[4] = target: Cyclin-dependent kinase 5/CDK5 activator 1 (Homo sapiens, UniProt Q00535); format: cell-based, Sf9
[5] = target: Casein kinase I isoform epsilon (Homo sapiens, UniProt P49674)
[6] = target: Dual specificity protein kinase CLK2 (Homo sapiens, UniProt P49760)
[7] = target: T2, Dual specificity tyrosine-phosphorylation-regulated kinase 4 (Homo sapiens, UniProt Q9NR20)
T2 sequence (Q9NR20 whole entry): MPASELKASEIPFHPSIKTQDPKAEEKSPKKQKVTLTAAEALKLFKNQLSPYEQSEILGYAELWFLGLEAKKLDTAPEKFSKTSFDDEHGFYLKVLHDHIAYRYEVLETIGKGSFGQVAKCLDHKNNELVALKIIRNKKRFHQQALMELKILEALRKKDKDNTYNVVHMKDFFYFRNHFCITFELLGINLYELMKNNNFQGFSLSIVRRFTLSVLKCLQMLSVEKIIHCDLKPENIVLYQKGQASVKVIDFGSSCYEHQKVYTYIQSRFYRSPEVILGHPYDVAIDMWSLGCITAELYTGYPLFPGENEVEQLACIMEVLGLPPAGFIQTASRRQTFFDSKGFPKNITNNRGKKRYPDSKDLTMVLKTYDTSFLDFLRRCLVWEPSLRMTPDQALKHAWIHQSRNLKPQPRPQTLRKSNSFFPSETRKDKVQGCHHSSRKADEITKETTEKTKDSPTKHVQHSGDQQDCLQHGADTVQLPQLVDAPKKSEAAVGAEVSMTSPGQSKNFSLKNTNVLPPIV

[8] = target: T3, Dual specificity tyrosine-phosphorylation-regulated kinase 2 (Homo sapiens, UniProt Q92630)
T3 sequence (Q92630 whole entry): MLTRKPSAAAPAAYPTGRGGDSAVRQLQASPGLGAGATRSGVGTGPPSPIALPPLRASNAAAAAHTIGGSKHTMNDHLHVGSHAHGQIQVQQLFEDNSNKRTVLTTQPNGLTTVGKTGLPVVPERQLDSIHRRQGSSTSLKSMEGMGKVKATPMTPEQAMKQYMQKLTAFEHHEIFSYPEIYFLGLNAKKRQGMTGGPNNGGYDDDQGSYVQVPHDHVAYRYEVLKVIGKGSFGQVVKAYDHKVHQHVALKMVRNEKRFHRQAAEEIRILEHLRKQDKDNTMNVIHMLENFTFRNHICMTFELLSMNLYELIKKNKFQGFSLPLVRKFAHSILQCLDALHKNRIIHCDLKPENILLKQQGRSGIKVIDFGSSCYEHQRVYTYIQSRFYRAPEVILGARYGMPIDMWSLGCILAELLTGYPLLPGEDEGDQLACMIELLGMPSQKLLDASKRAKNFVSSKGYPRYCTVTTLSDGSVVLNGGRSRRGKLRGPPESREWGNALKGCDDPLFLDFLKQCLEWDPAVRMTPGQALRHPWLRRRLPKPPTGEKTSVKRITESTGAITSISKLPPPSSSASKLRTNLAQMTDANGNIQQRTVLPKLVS

Dual specificity protein kinase CLK2, sequence (P49760 whole entry): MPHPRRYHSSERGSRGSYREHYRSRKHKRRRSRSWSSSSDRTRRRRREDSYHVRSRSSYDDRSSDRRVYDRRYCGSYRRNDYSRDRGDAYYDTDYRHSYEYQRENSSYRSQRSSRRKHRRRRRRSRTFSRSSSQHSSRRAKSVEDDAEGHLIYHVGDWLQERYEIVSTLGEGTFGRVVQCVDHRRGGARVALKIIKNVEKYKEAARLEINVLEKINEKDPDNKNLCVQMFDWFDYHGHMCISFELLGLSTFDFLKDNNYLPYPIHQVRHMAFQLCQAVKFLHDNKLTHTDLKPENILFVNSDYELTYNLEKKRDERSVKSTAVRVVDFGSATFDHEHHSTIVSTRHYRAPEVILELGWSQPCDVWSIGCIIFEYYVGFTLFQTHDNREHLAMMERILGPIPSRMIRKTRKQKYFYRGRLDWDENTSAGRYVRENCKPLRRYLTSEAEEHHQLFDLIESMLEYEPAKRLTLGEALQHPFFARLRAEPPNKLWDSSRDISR
Dual specificity protein kinase CLK3, sequence (P49761 whole entry): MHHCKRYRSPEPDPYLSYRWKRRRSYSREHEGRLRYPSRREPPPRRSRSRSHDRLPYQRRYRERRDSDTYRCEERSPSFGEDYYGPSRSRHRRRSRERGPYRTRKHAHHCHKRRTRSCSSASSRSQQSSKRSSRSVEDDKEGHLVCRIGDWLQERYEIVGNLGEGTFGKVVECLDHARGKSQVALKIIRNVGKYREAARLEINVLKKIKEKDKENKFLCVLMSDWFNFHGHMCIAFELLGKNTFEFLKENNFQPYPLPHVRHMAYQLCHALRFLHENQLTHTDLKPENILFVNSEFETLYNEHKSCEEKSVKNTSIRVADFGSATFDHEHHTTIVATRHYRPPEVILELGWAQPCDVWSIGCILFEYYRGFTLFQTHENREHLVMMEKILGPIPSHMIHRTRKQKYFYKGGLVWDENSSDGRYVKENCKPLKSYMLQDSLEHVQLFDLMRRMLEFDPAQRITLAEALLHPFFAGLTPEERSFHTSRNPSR
Cyclin-dependent kinase 5/CDK5 activator 1, sequence (Q00535 whole entry, canonical isoform): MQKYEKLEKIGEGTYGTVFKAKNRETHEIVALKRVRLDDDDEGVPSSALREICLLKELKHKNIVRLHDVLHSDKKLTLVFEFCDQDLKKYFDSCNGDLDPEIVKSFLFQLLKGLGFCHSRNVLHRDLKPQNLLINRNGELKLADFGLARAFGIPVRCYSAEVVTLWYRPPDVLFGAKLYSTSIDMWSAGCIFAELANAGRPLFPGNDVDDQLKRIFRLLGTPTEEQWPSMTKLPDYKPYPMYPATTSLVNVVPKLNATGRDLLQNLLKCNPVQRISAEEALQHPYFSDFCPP
Cyclin-dependent kinase 5/CDK5 activator 1, sequence (Q15078 whole entry, further chain, canonical isoform): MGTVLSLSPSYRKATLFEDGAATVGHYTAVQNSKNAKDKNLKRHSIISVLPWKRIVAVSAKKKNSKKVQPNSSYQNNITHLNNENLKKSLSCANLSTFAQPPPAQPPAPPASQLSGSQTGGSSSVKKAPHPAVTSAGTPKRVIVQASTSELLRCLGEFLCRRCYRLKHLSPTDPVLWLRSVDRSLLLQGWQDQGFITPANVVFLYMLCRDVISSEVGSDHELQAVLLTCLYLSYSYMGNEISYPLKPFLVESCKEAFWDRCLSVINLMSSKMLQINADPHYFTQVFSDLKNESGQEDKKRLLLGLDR
Glycogen synthase kinase-3 beta, sequence (P49841 whole entry): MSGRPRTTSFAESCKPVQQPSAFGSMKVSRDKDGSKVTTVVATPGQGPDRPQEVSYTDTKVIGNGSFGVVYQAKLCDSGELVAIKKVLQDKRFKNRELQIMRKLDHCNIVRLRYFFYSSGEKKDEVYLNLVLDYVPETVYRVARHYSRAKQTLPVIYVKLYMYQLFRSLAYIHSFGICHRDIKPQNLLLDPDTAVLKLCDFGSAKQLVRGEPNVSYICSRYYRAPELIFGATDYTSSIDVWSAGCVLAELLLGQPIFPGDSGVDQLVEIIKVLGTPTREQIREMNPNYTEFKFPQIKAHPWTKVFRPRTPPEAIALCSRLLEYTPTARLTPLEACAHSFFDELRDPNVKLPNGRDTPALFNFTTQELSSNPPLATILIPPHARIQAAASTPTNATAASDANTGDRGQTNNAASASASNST
Casein kinase I isoform epsilon, sequence (P49674 whole entry, canonical isoform): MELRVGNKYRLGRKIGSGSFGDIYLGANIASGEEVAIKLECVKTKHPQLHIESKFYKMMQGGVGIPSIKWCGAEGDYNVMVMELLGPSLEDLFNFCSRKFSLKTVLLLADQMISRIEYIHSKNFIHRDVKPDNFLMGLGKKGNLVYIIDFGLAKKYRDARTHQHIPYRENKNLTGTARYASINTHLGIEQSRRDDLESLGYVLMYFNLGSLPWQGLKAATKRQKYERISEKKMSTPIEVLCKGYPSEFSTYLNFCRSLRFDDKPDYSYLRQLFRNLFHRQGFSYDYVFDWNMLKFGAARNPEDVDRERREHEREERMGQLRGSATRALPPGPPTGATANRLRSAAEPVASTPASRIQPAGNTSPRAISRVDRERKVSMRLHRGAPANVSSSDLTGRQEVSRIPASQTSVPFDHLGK

IC50 [1] [nM] | IC50 [2] [nM] | IC50 [3] [nM] | IC50 [4] [nM] | IC50 [5] [nM] | IC50 [6] [nM] | IC50 [7] [nM] | IC50 [8] [nM] | SMILES
4690 | 173 | 299 | 5500 | > 10000 | 39 | 326 | 389 | O=C1NC(NC2CCC(F)(F)C2)=N/C1=C\c1ccc2ncsc2c1 (racemic)
1660 | 211 | 350 | > 10000 | > 10000 | 117 | – | 256 | O=C1NC(Nc2ccccn2)=N/C1=C\c1ccc2ncsc2c1
7220 | 107 | 335 | 2490 | > 10000 | 37 | 246 | 124 | O=C1NC(NC2CCCSC2)=N/C1=C\c1ccc2ncsc2c1 (racemic)
4810 | 472 | 1170 | > 10000 | > 10000 | 89 | 288 | 527 | O=C1NC(NCC(O)Cc2ccccc2)=N/C1=C\c1ccc2ncsc2c1 (racemic)
> 10000 | 5100 | 450 | > 10000 | > 10000 | 997 | > 10000 | 7480 | CN1CCN(c2cnc(NC3=N/C(=C\c4ccc5ncsc5c4)C(=O)N3)nc2)CC1
2410 | 720 | 1250 | > 10000 | > 10000 | – | 1670 | 1910 | O=C1NC(N[C@@H](CO)CC2CCC2)=N/C1=C\c1ccc2ncsc2c1
9540 | 1130 | 1060 | > 10000 | – | 648 | 731 | 1570 | CO[C@H]1CCCC[C@H]1NC1=N/C(=C\c2ccc3ncsc3c2)C(=O)N1 (racemic)
2770 | 428 | 495 | 3890 | > 10000 | 51 | 383 | 704 | O=C1NC(NC2CCCCOC2)=N/C1=C\c1ccc2ncsc2c1 (racemic)
947 | 293 | 477 | > 10000 | > 10000 | 13 | 459 | 530 | O=C1NC(NC(CF)c2ccccc2)=N/C1=C\c1ccc2ncsc2c1 (racemic)
4370 | 309 | 706 | > 10000 | – | – | 1250 | 258 | O=C1NC(N[C@@H]2CCCC[C@@H](O)C2)=N/C1=C\c1ccc2ncsc2c1 (racemic)
3080 | 299 | 357 | > 10000 | 6930 | 46 | 319 | 1090 | O=C1NC(NCC(O)C2CCCCC2)=N/C1=C\c1ccc2ncsc2c1 (racemic)
5370 | 626 | 122 | 2300 | 9800 | 11 | 321 | 296 | O=C1NC(N[C@H]2C3CC4CC2C[C@](O)(C4)C3)=N/C1=C\c1ccc2ncsc2c1
9200 | 604 | 1640 | > 10000 | > 10000 | 236 | 1850 | 1180 | O=C1NC(N[C@@H]2CCCOC2)=N/C1=C\c1ccc2ncsc2c1
5560 | 127 | 119 | > 10000 | > 10000 | 28 | 143 | – | O=C1NC(NC2CCCCC2(F)F)=N/C1=C\c1ccc2ncsc2c1 (racemic)
6040 | 646 | 753 | > 10000 | – | – | 698 | 174 | O=C1NC(N[C@@H]2CCCC[C@H](O)C2)=N/C1=C\c1ccc2ncsc2c1 (racemic)
6280 | 532 | 592 | > 10000 | > 10000 | 56 | 591 | 189 | CC1(NC2=N/C(=C\c3ccc4ncsc4c3)C(=O)N2)CCNC1=O (racemic)
4310 | 270 | 1510 | > 10000 | > 10000 | 148 | 1560 | 352 | COC(CNC1=N/C(=C\c2ccc3ncsc3c2)C(=O)N1)c1ccccc1 (racemic)
> 10000 | 382 | 1360 | > 10000 | – | 310 | 551 | 342 | CO[C@@H]1CCCC[C@H]1NC1=N/C(=C\c2ccc3ncsc3c2)C(=O)N1
3260 | 1230 | 1030 | > 10000 | > 10000 | 109 | 1240 | 613 | O=C1NC(NCc2ccncc2)=N/C1=C\c1ccc2ncsc2c1
5270 | 8620 | > 10000 | > 10000 | > 10000 | 2200 | > 10000 | – | CC(C)(C)OC(=O)N1CCC(CNC2=N/C(=C\c3ccc4ncsc4c3)C(=O)N2)CC1
6920 | 135 | 434 | > 10000 | > 10000 | 15 | 2550 | – | O=C1NC(NCc2ccccc2C(F)(F)F)=N/C1=C\c1ccc2ncsc2c1
8750 | 628 | 1200 | > 10000 | – | 100 | 439 | 777 | CO[C@H]1CCCC[C@@H]1NC1=N/C(=C\c2ccc3ncsc3c2)C(=O)N1
854 | 341 | 343 | > 10000 | > 10000 | – | 938 | 355 | O=C1NC(NC2CC23CCCCC3)=N/C1=C\c1ccc2ncsc2c1 (configuration not stated)
> 10000 | 518 | 4200 | > 10000 | > 10000 | – | 9220 | – | Cc1ccc(CNC2=N/C(=C\c3ccc4ncsc4c3)C(=O)N2)c(C)c1
2150 | 376 | 1800 | > 10000 | > 10000 | 33 | 954 | – | Cc1csc(CNC2=N/C(=C\c3ccc4ncsc4c3)C(=O)N2)n1
> 10000 | 795 | 1010 | > 10000 | > 10000 | – | 719 | – | C[C@@H]1[C@H]2C[C@@H](C[C@H]1NC1=N/C(=C\c3ccc4ncsc4c3)C(=O)N1)C2(C)C
3680 | 710 | 706 | > 10000 | – | 134 | 2730 | 760 | O=C1NC(Nc2cccc(OC(F)F)c2)=N/C1=C\c1ccc2ncsc2c1
